According to US5164376A, “Method for treating retroviral infections with aryl-(2-pyrryl) keytone compound” (Hoffmann-LaRoche Inc., priority 1990, dated 1992):
“Also recorded” adds a separate entry of the source.

Experiments:
[1] = tested on: COS cells; assay: parallel cytotoxicity assay: SeAP gene expression under control of RSV-LTR (unresponsive to TAT) in COS cells; format: cell-based; conditions: values only in FIG. I
Method: At 24 hours post transfection 1, 10, and 100 μM of test compound was added to the culture media of COS cells transfected with two plasmids, one containing the reporter gene which codes for Secreted Alkaline Phosphatase (SeAP) under control of HIV-LTR, and other containing the TAT gene also under control of HIV-LTR. The alkaline phosphatase activity of the media was assayed 48 hours after addition of test compound. […] The anti-TAT activity is measured by the percent inhibition of SeAP gene expression under the control of HIV-LTR.

[2] = tested on: HIV-1 NIT strain; assay: inhibition of HIV-cytopathic effect in infected CD4+ CEM cells (live-cell count by trypan blue exclusion); format: cell-based; conditions: MOI=1, 4 days, values only in FIG. II
Method: (§1) FIGS. II Illustrates the anti-HIV activity of Compound II when tested according to the protocol set forth in Example 2. The open bars and the hatch bars are live-cell counts of infected and uninfected cells respectively. The filled circles are percentage of cell which were stained with antibody from AIDS patients. The duration of treatment for compound II was 4 days.
(§2) High titer virus stocks (HIV-1 NIT strain) were grown in CD4^+ CR1O cells in RMPI-1640 media (Gibco Laboratories) supplemented with 10% fetal calf serum and 0.1 mg/ml Gentamicin. The collected media were filtered through a 0.8 Micron filter and virus isolates were concentrated 100 fold and stored at -80° C.
(§3) CD4^+ CEM cells, propagated in the same medium, were incubated for 60 minutes at 37° C. with diluted stock virus at MOI=1. Cells were washed three times with phosphate buffered saline and resuspended in the medium at 2 x 10^5 cells/ml. Various quantities of Compound II were added. Four days after infection, numbers of live cells were counted by trypan blue exclusion [Mitsuya, et al. Proc. Natl. Acad. Sci. 83:1911 (1986)]. At the same time, aliquots of cells were fixed with acetone and stained with antibodies from AIDS patients, followed by a second staining with fluorescein-conjugated goat anti-human IgG (Cappel). […]

[3] = tested on: TAT; assay: anti-TAT assay: SeAP reporter gene expression under control of HIV-LTR in COS cells co-transfected with TAT; format: cell-based; conditions: 1, 10 and 100 μM added 24 h post transfection, assayed 48 h later, three independent assays, values only in FIG. I
From the text: FIG. I: Illustrates anti-TAT activity of Compound II. COS cells are co-transfected with TAT and Secreted Alkaline Phosphatase (SeAP) genes. The SeAP gene, under the control of the HIV-LTR (responsive to TAT activation) or the RSV-LTR (unresponsive to TAT action) serves as a monitor or reporter gene. SeAP activity in the HIV-LTR combination but not the RSV-LTR combination serves as a measure of TAT activity. Cells containing the RSV-LTR co-transfected gene combination serve as an indicator of the non-specific toxicity of added test compounds. The black bars represent the percent inhibition of SeAP activity by Compound II when the SeAP gene is under the control of HIV-LTR. The hatched bars represent the effect of […] on SeAP activity when the SeAP gene is regulated by RSV-LTR. […] The figure includes results from three separate assays.
Compound II was tested for anti-TAT activity in an anti-TAT assay described in copending patent application Case Docket No. 8320 filed on the same day as the instant application and hereby incorporated by reference. […] The anti-TAT activity is measured by the percent inhibition of SeAP gene expression under the control of HIV-LTR.

[4] = tested on: HIV-1 NIT strain; assay: inhibition of viral antigen production (percentage of cells stained with antibodies from AIDS patients); format: cell-based; conditions: CEM cells, MOI=1, 4 days; values only in FIG. II
Method: as §1, §2, §3

[5] = tested on: HIV; conditions: most patients; cited from earlier work

## NCC(=O)Nc1ccc(Cl)cc1C(=O)c1ccc[nH]1 [Compound II, 2-glycinamido-5-chlorophenyl (2-pyrryl) ketone]
[1]
  nonspecific toxicity (effect on SeAP activity under RSV-LTR): does not exhibit nonspecific autotoxicity
[2]
  inhibition of HIV-cytopathic effect: inhibition of HIV-cytopathic effect
[3]
  anti-TAT activity (inhibition of SeAP gene expression under HIV-LTR): exhibits anti-TAT activity; also recorded: specific inhibitor of TAT
[4]
  inhibition of viral antigen production: inhibition of HIV-cytopathic effect and viral antigen production

## Nc1ccn([C@H]2CC[C@@H](CO)O2)c(=O)n1 [ddC]
[5]
  virustatic range (dose): 0.005-0.25 mg/kg body weight
